Data published in US20080279923A1, “Use of Microtubule Stabilizing Compounds for the Treatment of Lesions of Cns Axons” (Max-Planck-Gesellschaft zur Forderung de Wissensch, priority 2005, published 2008).
Where “and” joins values, the source holds several entries; their conditions need not be identical. Equal entries are not always repeated.

Assays:
[1] = i.v. in mice; cited from earlier work
[2] = tested on: rat hippocampal neurons; assay: Process and axon formation during long term incubation with low drug concentrations; type: cell-based; settings: for number of processes per cell: read at 3 DIV; for total neurite length: 3 DIV; for number of processes which exceeded 60 μm: 2 further DIV
Description: (§1) Primary hippocampal neurons derived from rat embryos were cultured following the protocol of Goslin and Banker (1991) and de Hoop et al. (1997). In brief, the hippocampi of E18 rats were dissected, trypsinized, and physically dissociated. The cells were then washed in HBSS, and 1.0-1.3×10^5 cells were plated onto poly-lysine-treated glass coverslips in 6 cm petri dishes containing minimal essential medium (MEM) and 10% heat-inactivated horse serum. The cells were kept in 5% CO2 at 36.5° C. After 12-18 hr, the coverslips were transferred to a 6 cm dish containing astrocytes in MEM and N2 supplements.
For long term incubation, 0.1 to 30 nM Taxol (Sigma), 0.1 to 1 μM cytochalasin D (Sigma) or 3 nM to 10 μM Nocodazole (Sigma) were added to culture medium after 1 day in culture, and cells were further incubated at 36.5° C. Drugs were kept as stock solutions in DMSO at −20° C. (Taxol: 5 mM; Cytochalasin D: 10 mM; Nocodazole: 6.67 mM).
To detect proteins by immunohistochemistry, cells were fixed in 4% para-formaldehyde for 15 min at 37° C. (20 min for Tau-1 stainings), aldehyde groups were quenched in 50 mM ammonium chloride for 10 min, and the cells were then extracted with 0.1% Triton X-100 for 3 min.
Length and intensity measurements were done using Scion Image Beta 4.0.2 for MS Windows (based on NIH-image). For length measurements, cVisTec Professional 1.0 (cVisTec, Munich, Germany) was additionally used.
So far we had shown that axonal microtubules have a higher ability to resist depolymerization under harsh microtubule-destabilizing conditions. If there was a putative stability difference in axons and minor neurites, we hypothesized that particular growth conditions should allow formation of axons but not minor neurites. To assess the effect of modest microtubule destabilization on process formation, we treated hippocampal neurons after 1 DIV with low concentrations of Nocodazole. After 2 further DIV under such growth conditions cells were fixed [with 4% PFA/Sucrose] and stained for the axonal marker Tau-1. Using fluorescence microscopy, we evaluated effects on the formation of axons and minor neurites.
To test the influence of microtubule stabilization on axon formation we treated hippocampal neurons after 1 DIV with low concentrations of the microtubule-stabilizing drug Taxol (FIGS. 4A and H). […] Taxol (also known as Paclitaxel) is successfully used as an anti-cancer drug so far as it arrests dividing cells in the G2-M-phase of cell division. Neurons grown in the presence of low concentrations of Taxol were fixed [with 4% PFA/sucrose] after 3 to 7 DIV and stained for the axonal marker Tau-1 or the dendritic marker MAP2. Under control conditions, neurons had formed one axon and several minor neurites (FIGS. 4D and E). […] The number of processes which exceeded 60 μm had increased more than 2-fold by Taxol treatment (DMSO 1.53±0.05, 3 nM Taxol 2.93±0.46, 10 nM Taxol 3.58±0.54) (FIG. 4F). Similarly, the number of cells with more than one Tau-1-positive process went up about 4-fold in a concentration-dependent manner in Taxol-treated neurons (from 20.19±3.19% in DMSO-treated neurons to 80.81±1.71% neurons treated with 10 nM Taxol) (FIG. 4G).

[3] = tested on: growth cones of lesioned sciatic nerve axons; assay: Nocodazole application onto lesioned sciatic nerve (growth cone to bulb conversion); type: in vivo, GFP-M mice
Description: The mice were anesthetized as described. The sciatic nerve was exposed at around 2.5 cm from the DRG cell bodies by a small incision and crushed with forceps for ten seconds. The incision was sutured and the skin stapled. The anesthesia was reversed and the animals were transferred to a heating pad for the following 24 hours.
Sciatic nerve lesion was performed as described. After 24 hours animals were re-anesthetized and 10 μl of 330 μM of nocodazole (Sigma-Aldrich, diluted in 5% DMSO in PBS) or 5% DMSO alone was applied onto lesion site with a pipette. The injury site was closed and animals were perfused 24 hours after nocodazole or DMSO application for staining and imaging.
(§2) The size of retraction bulbs and growth cones was quantified as follows: the maximum diameter of the retraction bulb and growth cone at the tip of the axon was measured and divided by the axon diameter of the same end structure where the axon looked normal.

[4] = tested on: rat hippocampal neurons; assay: Microtubule stability assay: Nocodazole-induced microtubule retraction in hippocampal neurons; type: cell-based; settings: for cells in which microtubule retraction was significantly higher in minor neurites compared to axons: stage 3 neurons, 5 min
Description: as §1
Analyzing short term microtubule depolymerization, the fate of individual neurons was followed. Cells localized on the grid of a Cellocate coverslip were photographed. The coverslip was then transferred into HEPES-buffered HBSS containing Nocodazole and incubated for 5 min at 36.5° C. in the incubator. [As Nocodazole is insoluble in aqueous solutions, special care was taken to ensure equal distribution of Nocodazole in HBSS.] After short term incubation, neurons were PHEM-fixed to eliminate depolymerized tubulin subunits and allow clear visualization of microtubules.
To visualize microtubules clearly, an alternative fixation method (PHEM-fixation) was used if required. To get rid of unpolymerized tubulin subunits, cells were simultaneously fixed and permeabilized for 15 min at 37° C. in PHEM buffer (60 mM PIPES and 25 mM HEPES) containing 3.7% paraformaldehyde, 0.25% glutaraldehyde, 5 mM EGTA, 1 mM MgCl, 3.7% sucrose, and 0.1% Triton X-100 (adapted from Smith, 1994) and quenched as above.
To determine the ratio of acetylated to tyrosinated α-Tubulin, the fluorescence signals of different channels of pictures taken with 63× magnification were compared. In the medial part of each process, the average fluorescence intensity of both acetylated and tyrosinated α-Tubulin was measured in a square of 5×5 pixel and the ratio of the values was determined. For minor neurites of the same cell, the average of the ratios was calculated in polarized neurons and used for comparison to the ratio of the corresponding axon. For unpolarized neurons, the highest ratio was compared to the average of the ratios of the remaining neurites. To measure microtubule retraction after Nocodazole treatment, fixed and stained neurons were relocated on the Cellocate coverslips. Pictures were taken of both the actin cytoskeleton (visualized by staining with Rhodamine-coupled Phalloidin) and the microtubules (stained with an antibody recognizing α-Tubulin). The actin cytoskeleton outlining the neuron was used as a reference point to measure retraction of microtubules from the distal part of the processes towards the cell body.
To test the resistance of microtubules to depolymerization, we applied the drug Nocodazole to stage 3 neurons, followed by fixation [in 3.7% PFA/Sucrose, 0.25% Glutaraldehyde, 1×PHEM-buffer and 0.1% Triton X-100] after a brief incubation (FIG. 2 A). Nocodazole is known to disrupt microtubules by binding to β-Tubulin and […], thus inhibiting microtubule dynamics. After fixation, neurons were doublestained for F-Actin and α-Tubulin or acetylated and tyrosinated α-Tubulin. Fluorescence microscopy and CCD imaging was used to quantify retraction of microtubules from the distal end of processes or distribution of posttranslational modifications of α-Tubulin after partial depolymerization of the microtubule cytoskeleton.

[5] = tested on: lesioned dorsal column (CNS) axons; assay: Taxol application immediately after dorsal column lesion: retraction bulb formation, in vivo imaging; design: species or system GFP-M mice
Description: (§3) We used an Olympus SZX-12 fluorescent stereomicroscope equipped with 1× Plan Apochromat objective and 1.6× Plan Fluorite objective (Olympus). The ColorView II camera integrated to the microscope was used to capture images through Analysis FIVE software (Soft Imaging System). Animals were anesthetized as described. After removing the laminae at T11/12 level, a small unilateral lesion was applied with the vannas spring scissors (FST) by transecting only the superficial axons of the dorsal columns. We imaged the injury site before and after lesion by acquiring serial images. The animals were kept on a heating pad during the imaging session.
(§4) A small unilateral spinal cord lesion at T12 level was performed as described. 10 μl of 1 μM or 5 μM taxol (Sigma-Aldrich, diluted in Saline) or saline as control was applied onto the lesion site each hour starting immediately after or 24 hours after lesioning. The lesion sites were visualized by in vivo imaging as described. The animals' anesthesia was boosted after 3 hours. At the end of the observation period animals were perfused and prepared for the confocal imaging as described.
as §2
The distance of taxol and saline treated axons to the lesion site was quantified as follows: The lesion site was outlined from the in vivo binocular images. We then measured the distance of the axonal tips to the proximal edge of the lesion.

[6] = tested on: astrocytes; assay: Astrocyte numbers in taxol treated cultures; type: cell-based
[7] = tested on: neurons; settings: CNS; cited from earlier work
[8] = tested on: lesioned dorsal column (CNS) axons; assay: Taxol application 24 hours after dorsal column lesion: regenerating sprouts; type: in vivo, mice
Description: as §3, §4
The length of the sprouts quantified on confocal images. The length of all sprouts including sprouts emerging from sprouts measured and summed up for final value. As number of sprouts, only primary sprouts emerging from directly axonal shaft were quantified.

[9] = 5 μM Nocodazole, brief incubation
[10] = stage 2 neurons (1 DIV), 3.3 μM Nocodazole

CCC(=O)O[C@H]1C[C@H]2OC[C@@]2(OC(C)=O)[C@H]2[C@H](OC(=O)c3ccccc3)[C@]3(O)C[C@H](OC(=O)[C@H](O)[C@@H](NC(=O)OC(C)(C)C)c4ccco4)C(C)=C([C@@H](O)C(=O)[C@]12C)C3(C)C [MAC-321, 5beta, 20-epoxy-1, 2alpha-, 4-, 7beta-, 10beta-, 13alpha-hexahydroxytax-11-en-9-one 4 acetate 2 benzoate 7-propionate 13-ester with (2R,3S)—N-tertbutoxycarbonyl-3-(2-furyl)isoserine]
Lethal dose [1]: 140 mg/kg

COC(=O)Nc1nc2ccc(C(=O)c3cccs3)cc2[nH]1 [Nocodazole]
number of processes per cell ([2]; 15 nM Nocodazole from 1 DIV): 3.58±0.08 | increase of total neurite length from day 1 to day 3 in vitro ([2]; 45 nM Nocodazole): more than 3 fold | number of processes per cell ([2]; 45 nM Nocodazole from 1 DIV): 2.64±0.08 | total neurite length ([2]; 45 nM Nocodazole): 197.31 μm | increase of total neurite length from day 1 to day 3 in vitro ([2]; 75 nM Nocodazole): > 2 fold | number of processes per cell ([2]; 75 nM Nocodazole from 1 DIV): 2.20±0.18 | total neurite length ([2]; 75 nM Nocodazole): 134.89 μm | axons that transformed their growth cones into a bulb ([3]; 10 μl of 330 μM nocodazole 24 h after sciatic nerve crush, evaluated 24 h after treatment): 42.3%±13.2% and 45%±13% | tip/axon shaft ratio of nocodazole induced retraction bulbs ([3]; 10 μl of 330 μM nocodazole, 24 h after treatment): 4.25±0.56 | microtubule retraction of minor neurites [4, 9]: 12.47±2.221 μm | retraction of axonal microtubules [4, 9]: 8.89 μm | average microtubule retraction of the remaining minor neurites [4, 10]: 13.71±2.84 μm | microtubule retraction in the minor neurite with the lowest retraction [4, 10]: 4.50±1.27 μm | cells in which microtubule retraction was significantly higher in minor neurites compared to axons ([4]; 3.3 μM Nocodazole): 59.3±6.9% | cells in which microtubule retraction was significantly higher in minor neurites compared to axons ([4]; 5 μM Nocodazole): 60%±5.1%

CC(=O)O[C@H]1C(=O)[C@@]2(C)[C@H]([C@H](OC(=O)c3ccccc3)[C@]3(O)C[C@H](OC(=O)[C@H](O)[C@@H](NC(=O)c4ccccc4)c4ccccc4)C(C)=C1C3(C)C)[C@]1(OC(C)=O)CO[C@@H]1C[C@@H]2O [Taxol, Tax-11-en-9-one, 5beta,20-epoxy-1,2alpha,4,7beta, 10beta,13alpha-hexahydroxy-, 4,10-diacetate 2-benzoate, 13-ester with (2R,3S)—N-benzoyl-3-phenylisoserine (8Cl)]
number of processes which exceeded 60 μm ([2]; 3 nM Taxol from 1 DIV): 2.93±0.46 | cells with more than one Tau-1-positive process ([2]; 10 nM Taxol): 80.81±1.71% | number of processes which exceeded 60 μm ([2]; 10 nM Taxol from 1 DIV): 3.58±0.54 | increase of the number of cells with more than one Tau-1-positive process ([2]; 10 nM Taxol versus DMSO): about 4 fold | increase of the number of processes which exceeded 60 μm ([2]; Taxol treatment versus DMSO): more than 2 fold | tip/axon ratio of retraction bulbs formed during treatment ([5]; 1 μM taxol, 5 biggest retraction bulbs per animal, 6 hours): 2.53±0.54 | animals with proximal axonal stumps as close as 25 μm to the injury site ([5]; 1 μM taxol, 6 hours after injury): 6 out of 11 | axons that developed retraction bulbs (tip/axon ratio >2) ([5]; 10 μl of 1 μM taxol once per hour from immediately after injury, first 6 hours): 22.8%±13.1% | astrocyte numbers [6]: drastic reduction in astrocyte numbers | neuronal death [7]: induces dose-dependent neuronal death | animals in which the extended retraction bulb with filopodia like extensions was observed ([8]; 5 μM taxol, 48 h post injury): 4 out of 12 | sprout terminals with extended retraction bulb with several filopodia like extensions ([8]; 5 μM taxol, 48 h post injury): 8.9%±5.0% | sprout terminals with slim growth cone morphology ([8]; 5 μM taxol, 48 h post injury): 57%±20% | sprout terminals with small retraction bulb morphology ([8]; 5 μM taxol, 48 h post injury): 41.8%±16.6% | total number of the sprouts from one axon ([8]; 10 μl of 5 μM taxol once each hour, 4-5 times, from 24 h post injury, read 48 h post injury): 7.83±1.79 | microtubule retraction in Taxol-induced axon-like processes ([4]; 10 nM Taxol for 24 h, then 5 μM Nocodazole briefly): 7.48±1.761 μm
